# Laboratory results as given in ChEMBL document CHEMBL5244219, “Recent developments of quinolone-based derivatives and their activities against Escherichia coli” (Eur J Med Chem, 2018).
# Test system: Escherichia coli
# Test: Antibacterial activity against Escherichia coli assessed as bacterial growth inhibition measured after 18 to 24 hrs by broth microdilution method
# Format: functional
# Settings: time 18-24 hrs
row,MIC [µg/mL],SMILES
1,< 0.05,COc1c(N2C[C@@H]3[C@@H](N)[C@@H]3C2)c(F)cc2c(=O)c(C(=O)O)cn(-c3ccc(O)cc3)c12
2,< 0.05,COc1c(N2CCN(C)CC2)c(F)cc2c(=O)c(C(=O)O)cn(-c3ccc(O)cc3)c12
3,< 0.05,C[C@H](N)[C@H]1CCN(c2cc3c(cc2F)c(=O)c(C(=O)O)cn3-c2ccc(O)cc2)C1

# Test system: Escherichia coli
# Test: Antibacterial activity against Escherichia coli assessed as bacterial growth inhibition
# Format: functional
# Settings: not given
row,SMILES,MIC [µg/mL]
1,COc1cc(/C=N/n2c(=O)c(C(C)=O)cc3cc([N+](=O)[O-])ccc32)cc(OC)c1OC,1.6
2,CC(=O)c1cc2cc(Cl)ccc2n(/N=C/c2ccc(O)cc2)c1=O,1.6
3,CC(=O)c1cc2cc(Cl)ccc2n(/N=C/c2ccccc2[N+](=O)[O-])c1=O,1.6
4,CC1(C)S[C@@H]2[C@H](NC(=O)[C@H](N)c3ccc(O)cc3)C(=O)N2[C@H]1C(=O)O [AMOXICILLIN],2
5,CC(=O)c1cc2cc(Cl)ccc2n(/N=C/c2ccc(C)cc2)c1=O,1.6
6,CC(=O)c1cc2ccccc2n(/N=C/c2cccc([N+](=O)[O-])c2)c1=O,1.6
7,CN1CCN(c2c(F)cc3c(=O)c(C(=O)O)cn4c3c2SCC4)CC1 [RUFLOXACIN],0.25
8,CC1Cn2cc(C(=O)O)c(=O)c3cc(F)c(N4CCCNCC4)c(c32)S1 (centres undefined),0.12
9,O=C(O)c1cn2c3c(c(N4CCNCC4)c(F)cc3c1=O)SC(c1ccc(F)cc1)C2 (centres undefined),0.12
10,CC(=O)c1cc2ccccc2n(/N=C/c2ccccc2[N+](=O)[O-])c1=O,1.6
11,O=C(O)c1cn2c3c(c(Cl)c(F)cc3c1=O)SC(c1ccc(F)cc1)C2 (centres undefined),0.12
12,CC1Cn2cc(C(=O)O)c(=O)c3cc(F)c(N4CCNCC4)c(c32)S1 (centres undefined),0.25
13,CC1Cn2cc(C(=O)O)c(=O)c3cc(F)c(-n4ccnc4)c(c32)S1 (centres undefined),0.12
14,CC(=O)c1cc2ccccc2n(/N=C/c2ccc(C)cc2)c1=O,1.6
15,CC1Cn2cc(C(=O)O)c(=O)c3cc(F)c(N4CCN(C=O)CC4)c(c32)S1 (centres undefined),0.12
16,CC1Cn2cc(C(=O)O)c(=O)c3cc(F)c(N4CCCC4)c(c32)S1 (centres undefined),0.12
17,CC1Cn2cc(C(=O)O)c(=O)c3cc(F)c(N4C(C)CNCC4C)c(c32)S1 (centres undefined),0.12
18,CC(=O)c1cc2cc([N+](=O)[O-])ccc2n(/N=C/c2cccc([N+](=O)[O-])c2)c1=O,1.6
19,COc1cc(/C=N/n2c(=O)c(C(C)=O)cc3cc(Cl)ccc32)cc(OC)c1OC,1.6
20,CC(=O)c1cc2ccccc2n(/N=C/c2ccccc2Cl)c1=O,1.6
21,CC1Cn2cc(C(=O)O)c(=O)c3cc(F)c(Cl)c(c32)S1 (centres undefined),0.12
22,CN1CCN(c2c(F)cc3c(=O)c(C(=O)O)cn4c3c2SC(c2ccc(F)cc2)C4)CC1 (centres undefined),0.12
23,CC(=O)c1cc2ccccc2n(/N=C/c2ccc(O)cc2)c1=O,1.6
24,CC1Cn2cc(C(=O)O)c(=O)c3cc(F)c(N4CCN(Cc5ccc(F)cc5F)CC4)c(c32)S1 (centres undefined),0.12

# More lines, now with the values ahead:
row,MIC [µg/mL],SMILES
1,0.12,CC1Cn2cc(C(=O)O)c(=O)c3cc(F)c(N4CCN(c5ccccn5)CC4)c(c32)S1 (centres undefined)
2,0.12,CC1Cn2cc(C(=O)O)c(=O)c3cc(F)c(N4CCN(C)CC4)c(c32)S1 (centres undefined)
3,≤ 0.04,COc1cc(-c2nn(CN3CCN(c4cc5c(cc4F)c(=O)c(C(=O)O)cn5[C@@H]4C[C@@H]4F)CC3)c(=S)n2-c2ccccc2)cc(OC)c1OC
4,0.12,CC1Cn2cc(C(=O)O)c(=O)c3cc(F)c(N4CCN(S(=O)(=O)c5ccc(F)cc5)CC4)c(c32)S1 (centres undefined)
5,0.12,O=C(O)c1cn2c3c(c(Cl)c(F)cc3c1=O)SC(c1ccccc1F)C2 (centres undefined)
6,≤ 0.04,COc1cc(OC)cc(-c2nn(CN3CCN(c4cc5c(cc4F)c(=O)c(C(=O)O)cn5[C@@H]4C[C@@H]4F)CC3)c(=S)n2-c2ccccc2)c1
7,≤ 0.04,O=C(O)c1cn([C@@H]2C[C@@H]2F)c2cc(N3CCN(Cn4nc(-c5ccc6ccccc6c5)n(Cc5ccccc5)c4=S)CC3)c(F)cc2c1=O
8,≤ 0.04,O=C(O)c1cn([C@@H]2C[C@@H]2F)c2cc(N3CCN(Cn4nc(-c5ccccc5O)n(-c5ccccc5)c4=S)CC3)c(F)cc2c1=O
9,0.12,CC1Cn2cc(C(=O)O)c(=O)c3cc(F)c(N4CCN(Cc5cccc(F)c5)CC4)c(c32)S1 (centres undefined)
10,0.12,CC1Cn2cc(C(=O)O)c(=O)c3cc(F)c(N4CCN(c5ccc(F)cc5)CC4)c(c32)S1 (centres undefined)
11,0.12,CC1Cn2cc(C(=O)O)c(=O)c3cc(F)c(N4CCN(Cc5ccccc5C(F)(F)F)CC4)c(c32)S1 (centres undefined)
12,0.12,O=C(O)c1cn2c3c(c(Cl)c(F)cc3c1=O)SC(c1cccc(F)c1)C2 (centres undefined)
13,≤ 0.04,COc1cc(OC)cc(-c2nn(CN3CCN(c4cc5c(cc4F)c(=O)c(C(=O)O)cn5[C@@H]4C[C@@H]4F)CC3)c(=S)n2Cc2ccccc2)c1
14,0.12,CCNCC1CCN(c2c(F)cc3c(=O)c(C(=O)O)cn4c3c2SC(C)C4)C1 (centres undefined)
15,0.025,C[C@H]1COc2c(N3CCC4(CCN(C)C4)C3)c(F)cc3c(=O)c(C(=O)O)cn1c23 (some centres undefined)
16,≤ 0.04,COc1ccc(-c2nn(CN3CCN(c4cc5c(cc4F)c(=O)c(C(=O)O)cn5[C@@H]4C[C@@H]4F)CC3)c(=S)n2-c2ccccc2)cc1OC
17,≤ 0.04,O=C(O)c1cn([C@@H]2C[C@@H]2F)c2cc(N3CCN(Cn4nc(-c5ccncc5)n(-c5ccccc5)c4=S)CC3)c(F)cc2c1=O
